The test system of test [1] is B cells and IgG-secreting plasma cells in the BM. To be noted: i.p. twice a day 5 μg for 4 days.
Procedure: C57BL/6 mice were injected i.p. twice a day with 5 μg of AMD3100 for 4 days. B220+cells and IgG-secreting plasma cells were analyzed on day 4 by flow cytometry (H) and by ELISpot assay (I), respectively. n=5-6. The data are representative of at least two independent experiments. *p<0.05, **p<0.01, ***p<0.001.
To count Ig-secreting cells, MultiScreen filter plates with PVDF membrane (Merck) were activated for 1 min with 35% ethanol followed by washing and were coated with 7.2 μg/ml of goat anti-mouse Ig, F(ab′)2 fragment (Jackson ImmunoResearch) overnight at 4° C. After washing and blocking with RPMI1640/10% FCS, diluted fresh cells were added and incubated for 5 h at 37° C. Following incubation, alkaline phosphatase-conjugated anti-IgG, IgG1, IgM or IgA (Southern Biotech) was added for 1 h at 37° C. and spots were visualized with BCIP/NBT Plus substrate (Mabtech) and were counted by ELISpot reader (AID).
For test [2], the system named is BM IgG-secreting plasma cells. The test is described as follows: ELISpot count of Ig-secreting cells the day after i.p. SiiE peptide. Type of test: in vivo. To be noted: C57BL/6 mice, i.p. 100 μg peptide, analyzed on the next day. As to the method: FIG. 5. Identification of the microbial component reducing numbers of BM IgG-secreting plasma cells. (A) Salmonella colonizes in the spleen and liver but not in the BM. The CFU of Salmonella in the spleen, liver and BM of Salmonella-infected mice on day 4 after infection was counted. The dotted line represents the limit of detection. n=3-6. […] C57BL/6 mice received 200 μl of LB medium, untreated or LPS-depleted culture supernatants from flagellin-deficient attenuated Salmonella or Escherichia coli (ΔLonΔFIhD) and on the next day (24 h later) were analyzed for IgG-secreting cells by ELISpot assay. n=8. […] Mice were infected i.p. with 200 μl of LB and LPS-depleted supernatant from flagellin-deficient attenuated Salmonella on day 41 and analyzed for IgG-secreting cells on the next day. n=6. […] C57BL/6 mice received i.p. 200 μl of LB medium and LPS-depleted supernatants from attenuated Salmonella ΔLon or ΔLonΔSiiE and on the next day were analyzed for IgG-secreting cells by ELISpot assay. n=5. […] C57BL/6 mice received i.p. 100 μg peptide coding SiiE amino acid 129-168 and on the next day were analyzed for IgG- and IgM-secreting cells in the BM and spleen. n=5. […] BM or splenic cells from C57BL/6 mice were incubated with 30 μg/ml of GST-SiiE 97-170 or GST protein, stained with anti-GST antibodies, and analyzed by flow cytometry. n=3. […] Adherent cells were counted after washing.

The test system of test [3] is anti-DNA IgG-secreting plasma cells in the BM. The test is described as follows: Murine model of systemic lupus erythematosus, anti-DNA IgG ELISpot in BM. It is filed as in vivo. To be noted: NZB/VV Fl female mice 5-6 months old, i.p. 100 μg on days 0, 3, 7 and 10, ELISpot on day 11. Here is the method: FIG. 15. SiiE129 peptide reduce numbers of DNA-specific IgG-secreting plasma cells in the bone marrow. […] NZB/VV Fl female mice (5-6 months old) received i.p. 100 μg peptide coding SiiE amino acid 129-168 on days 0, 3, 7 and 10 and on day 11 were analyzed for anti-DNA IgG-secreting cells in the BM by ELISpot assay. n=5-6. The data are representative of two independent experiments.
NZB/VV Fl female mice (5-6 months old) received i.p. 100 μg peptide coding SiiE amino acid 129-168 on days 0, 3, 7 and 10 and on day 11 were analyzed for anti-DNA IgG-secreting cells in the BM by ELISpot assay.

We go through 2 molecules from patent publication US11261220B2, “Salmonella siiE-derived peptides for manipulation of long-lived plasma cells” (DEUTSCHES RHEUMA-FORSCHU[…], priority 2017, dated 2022).

Turning to `c1cc(CN2CCCNCCNCCCNCC2)ccc1CN1CCCNCCNCCCNCC1` [AMD3100], the “B cell numbers in the BM” value in test [1] (B220+ cells by flow cytometry on day 4) is on record as “numerically reduces B cells”. Also, the “numbers of IgG-secreting plasma cells in the BM” value in test [1] (ELISpot on day 4) was “but not IgG-secreting plasma cells in the BM”.

Turning to “KEADKAKEEAEKAKEAAEKALNEAFEVQNSSKQIEEMLQN (listed as Salmonella enterica) [SiiE 129-168]”, the “numbers of BM IgG-secreting plasma cells” value in test [2] is given as “markedly reduced numbers of BM IgG-secreting plasma cells”; in test [2] (listed as peptide coding SiiE amino acid 129-168), “reduces numbers of BM IgG-secreting plasma cells”. Besides, the “number of anti-DNA IgG-secreting cells in bone marrow” value in test [3] is “reduces the number of Anti-DNA IgG-secreting cells in bone marrow”; in test [3] (listed as SiiE129 peptide), “reduces numbers of anti-DNA IgG-secreting plasma cells in the BM”.
